Consider 15 compounds from US20250230193A1, “CYCLIC COMPOUND HAVING SELECTIVE KRAS INHIBITORY EFFECT ON HRAS AND NRAS” (CHUGAI SEIYAKU KABUSHIKI KAISHA, priority 2022, published 2025).

The target in test [1] is GDP-bound NRAS wild-type protein (Homo sapiens, UniProt P01111). The experiment in a line: Binding to NRAS by surface plasmon resonance (SPR), Single Cycle Kinetics. Conditions: SPR, GDP-bound NRAS wild-type vs GDP-bound KRAS wild-type. In general terms: In SPR one partner is held on a chip, and binding of the other changes the refractive index at the surface.
Sequence of GDP-bound NRAS wild-type protein (P01111 whole entry): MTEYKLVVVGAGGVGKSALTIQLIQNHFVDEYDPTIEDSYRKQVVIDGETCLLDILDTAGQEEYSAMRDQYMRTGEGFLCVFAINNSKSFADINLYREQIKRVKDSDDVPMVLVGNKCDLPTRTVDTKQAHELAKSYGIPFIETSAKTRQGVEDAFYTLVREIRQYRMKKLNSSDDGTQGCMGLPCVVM
The target of test [2] is GDP-bound HRAS wild-type protein (Homo sapiens, UniProt P01112). The experiment in a line: Binding to HRAS by surface plasmon resonance (SPR), Single Cycle Kinetics. To be noted: SPR, GDP-bound HRAS wild-type vs GDP-bound KRAS wild-type.
Sequence of GDP-bound HRAS wild-type protein (P01112 whole entry): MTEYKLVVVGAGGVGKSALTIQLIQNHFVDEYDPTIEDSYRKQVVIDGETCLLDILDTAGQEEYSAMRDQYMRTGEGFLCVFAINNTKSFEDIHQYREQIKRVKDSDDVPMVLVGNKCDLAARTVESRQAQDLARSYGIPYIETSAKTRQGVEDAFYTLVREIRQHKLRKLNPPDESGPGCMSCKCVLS

Take `CCC[C@H]1C(=O)N[C@@H]([C@@H](C)CC)C(=O)N(C)CC(=O)N(C)[C@H]2C/C=C\CCN(C2=O)[C@@H](Cc2ccc(C)cc2)C(=O)N(C)CC(=O)N[C@@H](CCc2ccc(C(F)(F)F)c(Cl)c2)C(=O)N2C[C@H](OCC)C[C@H]2C(=O)NC2(CC(C)(C)C2)C(=O)N(C)[C@@H](C(CC)CC)C(=O)N(C)[C@H](C(=O)N(C)C)CC(=O)N1C` [PP2146]: the “NRAS/KRAS (ratio of KD value with respect to NRAS to KD value with respect to KRAS)” value in test [1] is “A (a compound having 10 or more and less than 20 is denoted as A)”. Moreover, the “HRAS/KRAS (ratio of KD value with respect to HRAS to KD value with respect to KRAS)” value in test [2] is “A (a compound having 10 or more and less than 20 is denoted as A)”.
In the case of `CCO[C@@H]1C[C@H]2C(=O)NC3(CC(C)(C)C3)C(=O)N(C)[C@@H](C(CC)CC)C(=O)N(C)[C@H](C(=O)N(C)C)CC(=O)N(C)[C@@H](CC)C(=O)N[C@@H]([C@@H](C)CC)C(=O)N(C)CC(=O)N(C)[C@H]3C/C=C\CCN(C3=O)[C@@H](Cc3ccc(C)cc3)C(=O)N(C)CC(=O)N[C@@H](CCc3cc(F)c(C(F)(F)F)c(F)c3)C(=O)N2C1` [PP2147], the “NRAS/KRAS (ratio of KD value with respect to NRAS to KD value with respect to KRAS)” value in test [1] was “A (a compound having 10 or more and less than 20 is denoted as A)”. Besides, the “HRAS/KRAS (ratio of KD value with respect to HRAS to KD value with respect to KRAS)” value in test [2] was “B (a compound having 3 or more and less than 10 is denoted as B)”.
For the compound `CCO[C@@H]1C[C@H]2C(=O)NC3(CC(C)(C)C3)C(=O)N(C)[C@@H](C(CC)CC)C(=O)N(C)[C@H](C(=O)N(C)C)CC(=O)N(C)[C@@H](CC(C)C)C(=O)N[C@@H]([C@@H](C)CC)C(=O)N(C)CC(=O)N(C)[C@H]3C/C=C\CCN(C3=O)[C@@H](Cc3ccc(C)cc3)C(=O)N(C)CC(=O)N[C@@H](CCc3ccc(C(F)(F)F)c(Cl)c3)C(=O)N2C1` [PP2148], the “NRAS/KRAS (ratio of KD value with respect to NRAS to KD value with respect to KRAS)” value in test [1] was “A (a compound having 10 or more and less than 20 is denoted as A)”. Also, the “HRAS/KRAS (ratio of KD value with respect to HRAS to KD value with respect to KRAS)” value in test [2] was “A (a compound having 10 or more and less than 20 is denoted as A)”.
For `CCO[C@@H]1C[C@H]2C(=O)NC3(CC(C)(C)C3)C(=O)N(C)[C@@H](C(CC)CC)C(=O)N(C)[C@H](C(=O)N3CCCC3)CC(=O)N(C)[C@@H](CC)C(=O)N[C@@H]([C@@H](C)CC)C(=O)N(C)CC(=O)N(C)[C@H]3C/C=C\CCN(C3=O)[C@@H](Cc3ccc(C)cc3)C(=O)N(C)CC(=O)N[C@@H](CCc3cc(F)c(C(F)(F)F)c(F)c3)C(=O)N2C1` [PP2149], the “NRAS/KRAS (ratio of KD value with respect to NRAS to KD value with respect to KRAS)” value in test [1] is “A (a compound having 10 or more and less than 20 is denoted as A)”. Moreover, the “HRAS/KRAS (ratio of KD value with respect to HRAS to KD value with respect to KRAS)” value in test [2] was “A (a compound having 10 or more and less than 20 is denoted as A)”.
For the compound `CCO[C@@H]1C[C@H]2C(=O)NC3(CC(C)(C)C3)C(=O)N(C)[C@@H](C(CC)CC)C(=O)N(C)[C@H](C(=O)N(C)C)CC(=O)N(C)[C@@H](C)C(=O)N[C@@H]([C@@H](C)CC)C(=O)N(C)CC(=O)N(C)[C@H]3C/C=C\CCN(C3=O)[C@@H](Cc3ccc(C)cc3)C(=O)N(C)CC(=O)N[C@@H](CCc3ccc(C(F)(F)F)c(Cl)c3)C(=O)N2C1` [PP2150], the “NRAS/KRAS (ratio of KD value with respect to NRAS to KD value with respect to KRAS)” value in test [1] is “AA (a compound having 20 or more is denoted as AA)”. The “HRAS/KRAS (ratio of KD value with respect to HRAS to KD value with respect to KRAS)” value in test [2] is “A (a compound having 10 or more and less than 20 is denoted as A)”.
`CCO[C@@H]1C[C@H]2C(=O)NC3(CC(C)(C)C3)C(=O)N(C)[C@@H](C(CC)CC)C(=O)N(C)[C@H](C(=O)N(C)C)CC(=O)N(C)[C@@H](CC3CCC3)C(=O)N[C@@H]([C@@H](C)CC)C(=O)N(C)CC(=O)N(C)[C@H]3C/C=C\CCN(C3=O)[C@@H](Cc3ccc(C)cc3)C(=O)N(C)CC(=O)N[C@@H](CCc3cc(F)c(C(F)(F)F)c(F)c3)C(=O)N2C1` [PP2151]: in test [1], the “NRAS/KRAS (ratio of KD value with respect to NRAS to KD value with respect to KRAS)” value was “A (a compound having 10 or more and less than 20 is denoted as A)”. Also, the “HRAS/KRAS (ratio of KD value with respect to HRAS to KD value with respect to KRAS)” value in test [2] was “A (a compound having 10 or more and less than 20 is denoted as A)”.
As to `CCO[C@@H]1C[C@H]2C(=O)NC3(CC(C)(C)C3)C(=O)N(C)[C@@H](C(CC)CC)C(=O)N(C)[C@H](C(=O)N3CCCC3)CC(=O)N(C)[C@@H](C)C(=O)N[C@@H]([C@@H](C)CC)C(=O)N(C)CC(=O)N(C)[C@H]3C/C=C\CCN(C3=O)[C@@H](Cc3ccc(C)cc3)C(=O)N(C)CC(=O)N[C@@H](CCc3ccc(C(F)(F)F)c(Cl)c3)C(=O)N2C1` [PP2152], the “NRAS/KRAS (ratio of KD value with respect to NRAS to KD value with respect to KRAS)” value in test [1] is listed as “AA (a compound having 20 or more is denoted as AA)”. In addition, the “HRAS/KRAS (ratio of KD value with respect to HRAS to KD value with respect to KRAS)” value in test [2] is “A (a compound having 10 or more and less than 20 is denoted as A)”.
With `CCO[C@@H]1C[C@H]2C(=O)NC3(CC(C)(C)C3)C(=O)N(C)[C@@H](C(CC)CC)C(=O)N(C)[C@H](C(=O)N(C)C)CC(=O)N(C)[C@@H](C(C)C)C(=O)N[C@@H]([C@@H](C)CC)C(=O)N(C)CC(=O)N(C)[C@H]3C/C=C\CCN(C3=O)[C@@H](Cc3ccc(C)cc3)C(=O)N(C)CC(=O)N[C@@H](CCc3cc(F)c(C(F)(F)F)c(F)c3)C(=O)N2C1` [PP2153], the “NRAS/KRAS (ratio of KD value with respect to NRAS to KD value with respect to KRAS)” value in test [1] was “A (a compound having 10 or more and less than 20 is denoted as A)”. The “HRAS/KRAS (ratio of KD value with respect to HRAS to KD value with respect to KRAS)” value in test [2] was “A (a compound having 10 or more and less than 20 is denoted as A)”.
As to `CCO[C@@H]1C[C@H]2C(=O)NC3(CC(C)(C)C3)C(=O)N(C)[C@@H](C(CC)CC)C(=O)N(C)[C@H](C(=O)N(C)C)CC(=O)N(C)[C@@H](CC)C(=O)N[C@@H]([C@@H](C)CC)C(=O)N(C)CC(=O)N(C)[C@H]3C/C=C\CCN(C3=O)[C@@H](Cc3ccc(C)cc3)C(=O)N(C)CC(=O)N[C@@H](CCc3ccc(C(F)(F)F)c(Cl)c3)C(=O)N2C1` [PP2154], the “NRAS/KRAS (ratio of KD value with respect to NRAS to KD value with respect to KRAS)” value in test [1] was “A (a compound having 10 or more and less than 20 is denoted as A)”. Further, the “HRAS/KRAS (ratio of KD value with respect to HRAS to KD value with respect to KRAS)” value in test [2] is “A (a compound having 10 or more and less than 20 is denoted as A)”.
As for `CCO[C@@H]1C[C@H]2C(=O)NC3(CC(C)(C)C3)C(=O)N(C)[C@@H](C(CC)CC)C(=O)N(C)[C@H](C(=O)N(C)C)CC(=O)N(C)[C@@H](CC3CC3)C(=O)N[C@@H]([C@@H](C)CC)C(=O)N(C)CC(=O)N(C)[C@H]3C/C=C\CCN(C3=O)[C@@H](Cc3ccc(C(F)(F)F)cc3)C(=O)N(C)CC(=O)N[C@@H](CCc3ccc(C(F)(F)F)c(OC)c3)C(=O)N2C1` [PP2155], the “NRAS/KRAS (ratio of KD value with respect to NRAS to KD value with respect to KRAS)” value in test [1] is “A (a compound having 10 or more and less than 20 is denoted as A)”. The “HRAS/KRAS (ratio of KD value with respect to HRAS to KD value with respect to KRAS)” value in test [2] is “B (a compound having 3 or more and less than 10 is denoted as B)”.
Consider `CCO[C@@H]1C[C@H]2C(=O)NC3(CC(C)(C)C3)C(=O)N(C)[C@@H](C(CC)CC)C(=O)N(C)[C@H](C(=O)N(C)C)CC(=O)N(C)[C@@H](CC3CCC3)C(=O)N[C@@H]([C@@H](C)CC)C(=O)N(C)CC(=O)N(C)[C@H]3C/C=C\CCN(C3=O)[C@@H](Cc3ccc(C)cc3)C(=O)N(C)CC(=O)N[C@@H](CCc3ccc(C(F)(F)F)c(Cl)c3)C(=O)N2C1` [PP2156], for which the “NRAS/KRAS (ratio of KD value with respect to NRAS to KD value with respect to KRAS)” value in test [1] is on record as “AA (a compound having 20 or more is denoted as AA)”. Moreover, the “HRAS/KRAS (ratio of KD value with respect to HRAS to KD value with respect to KRAS)” value in test [2] is “A (a compound having 10 or more and less than 20 is denoted as A)”.
As to `CCO[C@@H]1C[C@H]2C(=O)NC3(CC(C)(C)C3)C(=O)N(C)[C@@H](C(CC)CC)C(=O)N(C)[C@H](C(=O)N(C)C)CC(=O)N(C)[C@@H](COC)C(=O)N[C@@H]([C@@H](C)CC)C(=O)N(C)CC(=O)N(C)[C@H]3C/C=C\CCN(C3=O)[C@@H](Cc3ccc(C(F)(F)F)cc3)C(=O)N(C)CC(=O)N[C@@H](CCc3ccc(C(F)(F)F)c(OC)c3)C(=O)N2C1` [PP2157], the “NRAS/KRAS (ratio of KD value with respect to NRAS to KD value with respect to KRAS)” value in test [1] is “A (a compound having 10 or more and less than 20 is denoted as A)”. Further, the “HRAS/KRAS (ratio of KD value with respect to HRAS to KD value with respect to KRAS)” value in test [2] is “A (a compound having 10 or more and less than 20 is denoted as A)”.
For `CCO[C@@H]1C[C@H]2C(=O)NC3(CC(C)(C)C3)C(=O)N(C)[C@@H](C(CC)CC)C(=O)N(C)[C@H](C(=O)N(C)C)CC(=O)N(C)[C@@H](C(C)C)C(=O)N[C@@H]([C@@H](C)CC)C(=O)N(C)CC(=O)N(C)[C@H]3C/C=C\CCN(C3=O)[C@@H](Cc3ccc(C)cc3)C(=O)N(C)CC(=O)N[C@@H](CCc3ccc(C(F)(F)F)c(Cl)c3)C(=O)N2C1` [PP2158], the “NRAS/KRAS (ratio of KD value with respect to NRAS to KD value with respect to KRAS)” value in test [1] was “AA (a compound having 20 or more is denoted as AA)”. The “HRAS/KRAS (ratio of KD value with respect to HRAS to KD value with respect to KRAS)” value in test [2] is “A (a compound having 10 or more and less than 20 is denoted as A)”.
Take `CCO[C@@H]1C[C@H]2C(=O)NC3(CC(C)(C)C3)C(=O)N(C)[C@@H](C(CC)CC)C(=O)N(C)[C@H](C(=O)N3CCCC3)CC(=O)N(C)[C@@H](COC)C(=O)N[C@@H]([C@@H](C)CC)C(=O)N(C)CC(=O)N(C)[C@H]3C/C=C\CCN(C3=O)[C@@H](Cc3ccc(C(F)(F)F)cc3)C(=O)N(C)CC(=O)N[C@@H](CCc3ccc(C(F)(F)F)c(OC)c3)C(=O)N2C1` [PP2159]: the “NRAS/KRAS (ratio of KD value with respect to NRAS to KD value with respect to KRAS)” value in test [1] is given as “AA (a compound having 20 or more is denoted as AA)”. Besides, in test [2], the “HRAS/KRAS (ratio of KD value with respect to HRAS to KD value with respect to KRAS)” value is “A (a compound having 10 or more and less than 20 is denoted as A)”.
Turning to `CCC[C@H]1C(=O)N[C@@H]([C@@H](C)CC)C(=O)N(C)CC(=O)N(C)[C@H]2C/C=C\CCN(C2=O)[C@@H](Cc2ccc(C(F)(F)F)cc2)C(=O)N(C)CC(=O)N[C@@H](CCc2ccc(C(F)(F)F)c(OC)c2)C(=O)N2C[C@H](OCC)C[C@H]2C(=O)NC2(CC(C)(C)C2)C(=O)N(C)[C@@H](C(CC)CC)C(=O)N(C)[C@H](C(=O)N(C)C)CC(=O)N1C` [PP2160], the “NRAS/KRAS (ratio of KD value with respect to NRAS to KD value with respect to KRAS)” value in test [1] was “A (a compound having 10 or more and less than 20 is denoted as A)”. Moreover, the “HRAS/KRAS (ratio of KD value with respect to HRAS to KD value with respect to KRAS)” value in test [2] was “A (a compound having 10 or more and less than 20 is denoted as A)”.
